Reference: US20080199438A1, “Methods For Suppressing Tumor Proliferation” (DNAVEC RESEARCH INC., priority 2004, published 2008)

What was measured:
Assay type in all cases: cell-based, human
MRC5 cells [1] = assay: FGF-2-mediated secretion of VEGF and HGF with signal transduction inhibitors or neutralizing antibody, ELISA; details: MRC5, 10 ng/ml FGF-2, 72 hours; rapamycin 100 ng/ml, U0126 10 μmol/L, Ras-inhibitory peptide 50 μmol/L
Description: (A) Effect of various inhibitors of intracellular signal transduction pathways upon the secretion of VEGF and HGF in MRC5 cells. After 48 hours of preincubation in the presence of 1% FBS, cells were stimulated with 10 ng/ml of human recombinant FGF-2 in the presence or absence of various inhibitors. After 72 hours, the medium was subjected to ELISA. n=3 in each group. *P<0.01.
(C) Increases in FGF-2-mediated VEGF secretion completely depend on PDGFRα. After 48 hours of preincubation in the presence of 1% FBS, MRC5 cells were stimulated with 10 ng/ml of recombinant human FGF-2 in the presence or absence of an anti-PDGFRα neutralizing antibody. After 72 hours, the medium was subjected to ELISA. Similar results were obtained for the expression of HGF (data not shown). *P<0.01.
HSMC (J. Cell Biol., 50: 172-86 (1971)), MRC-5 (ATCC CCL-171), SAS (J. Biol. Chem., 270 (41): 24321-69 (1995)), MH134 (J. Natl. Cancer Inst., 17: 1-21 (1956)), QG56 (Int. J. Cancer, 35 (6): 808-12 (1985)), TF (Cancer, 69 (10): 2589-97 (1992)), KN (Cancer, 69 (10): 2589-97 (1992)), EBC-1 (Am. J. Pathol., 142 (2): 425-31 (1993)), PC9 (Int. J. Cancer, 15 (4): 449-55 (1985)), and COS7 Cells (ATCC CRL-1651) were purchased from American Type Culture Collection (ATCC). As mentioned previously, the intracellular signal inhibitors below were each used at the following concentrations for HSMC and MRC5 cells (Onimaru M et al., Circ Res. 91: 723-730 (2002)): Ras, Ras-inhibitory peptide (50 μmol/L, Alexis Japan, Tokyo, Japan); p70S6K, p70S6K inhibitor rapamycin (100 ng/ml, Sigma-Aldrich Japan, Tokyo, Japan); PKC, PKC inhibitor bisindolylmaleimide (100 nmol/L, Sigma); PI3K, PI3K-inhibitor wortmannin (120 nmol/L, Sigma); MEK inhibitor U0126 (10 μmol/L, Promega K.K., Tokyo, Japan); PKA, PKA-inhibitory peptide (1 μmol/L, Calbiochem, San Diego, Calif.); and […], NF-κB inhibitor ALLN (5 μmol/L, Roche Diagnostics, Tokyo, Japan).
(§1) As mentioned previously (Masaki I et al., Circ Res. 90: 966-973 (2002); Onimaru M et al., Circ Res. 91: 723-730 (2002)), the protein contents of the mouse limb muscle, tumor, and culture medium were determined using Quantikine Immunoassay systems for mice (both the 164 and 220 amino acid residue forms are recognized) and human VEGF-A, human FGF-2 (available to both human and mouse), human HGF (R&D Systems Inc., Minneapolis, Minn.), and rat HGF (available to mouse HGF; Institute of Immunology Inc., Tokyo, Japan), according to the manufacturer's instructions.

MRC5 cells [2] = assay: Northern blot time course of FGF-2-mediated VEGF mRNA expression; details: MRC5, 10 ng/ml FGF-2, Northern blot
Description: (B) A p70S6K inhibitor, Rapamycin (RAPA) stops the later phase of FGF-2-mediated VEGF mRNA expression in MRC5 cells. After 48 hours of preincubation in the presence of 1% FBS, cells were stimulated with 10 ng/ml of recombinant human FGF-2. Cells were harvested at the time indicated in the figure and then subjected to Northern blot analysis. The bands were visualized and subjected to densitometric analysis using a photoimager.
(§2) Total cellular RNA, isolated using the ISOGEN system (Wako Pure Chemicals, Osaka, Japan), was electrophoresed and transferred onto a nylon membrane. The membranes were hybridized overnight at 60° C. with random-primed [α-^32P]dCTP-labeled probes. The bands were visualized and subjected to densitometry using a photoimager.

MRC5 cells [3] = assay: VEGF secretion after stimulation with FGF-2 and/or PDGF-AA, ELISA of culture medium; details: MRC5, serum-free, 72 hours
Description: (§3) (A) Recombinant FGF-2 and PDGF-AA work together to increase VEGF secretion from fibroblasts (MRC5) and vascular smooth muscle cells (HSMCs). After 48 hours of preincubation in serum-free conditions, each of the cell lines was stimulated with FGF-2 and/or PDGF-AA. After 72 hours, the cultured medium was subjected to ELISA. n3 in each group. *P<0.01. #P<0.05
as §1
(§4) To assess the role of the PDGF-AA signal in the angiogenic response of host vasculature, the FGF-2-mediated induction of VEGF and HGF in human mesenchymal cells (MRC5 and HSMC) cultured under serum-free conditions was investigated. […] In clinical application such as ischemia treatments, angiogenesis might also be induced more effectively by administering both FGF-2 and PDGF-AA, rather than either one alone.

HSMC [4] = assay: Northern blot of receptor mRNA after growth factor stimulation
Description: (§5) (B) A time course of FGF-2-mediated expression of PDGFRα mRNA in MRC5 cells and HSMCs was analyzed by Northern blotting. After 48 hours of preincubation under serum-free conditions, each of the cell lines was stimulated with FGF-2. Cells were harvested at the time indicated in the figure and then subjected to Northern blot analysis. Bands were visualized and subjected to densitometric analysis using a photoimager. The experience was carried out in duplicate and similar results were obtained.
as §2, §4

MRC5 cells [5] = assay: as above
Description: as §5, §2, §4

HSMC [6] = assay: VEGF secretion after stimulation with FGF-2 and/or PDGF-AA, ELISA of culture medium; details: serum-free, 72 hours
Description: as §3, §1, §4

Row | Compound | FGF-2-mediated upregulation of HGF/SF protein (MRC5 cells [1]) | FGF-2-mediated upregulation of VEGF protein (MRC5 cells [1]) | time course of FGF-2-mediated VEGF expression (MRC5 cells [2]) | release of VEGF into the culture medium (MRC5 cells [3]) | PDGFRα transcription (HSMC [4]) | PDGFRα transcription (MRC5 cells [5]; MRC5, Northern blot) | level of VEGF in the culture medium (HSMC [6]) | FGFR1 expression (MRC5 cells [5]; data not shown)
1 | N#CC(=C(/N)Sc1ccccc1N)/C(C#N)=C(\N)Sc1ccccc1N [MEK inhibitor, U0126, reference compound] | removed these effects | removed these effects | – | – | – | – | – | –
2 | FGF-2: human recombinant fibroblast growth factor-2 used to stimulate cells | upregulated | upregulated | biphasic (at three hours and after that) upregulation | stimulated release of VEGF | upregulation | upregulation | – | –
3 | PDGF-AA: recombinant PDGF-A homodimer used to stimulate cells | – | – | – | did not | – | – | upregulated | did not change
